# System: rabbit blood clots
# Experiment: In vitro sonothrombolysis of rabbit blood clots in a Mylar flow chamber infused with serum
# Settings: CPDL 0.001% w/V added to the MB suspension, complete absence of tPA
# Description: To assess the combined effect of ultrasound in combination with tPA, a tissue permeabilizer, and microbubbles (MBs) on the efficacy of sonothrombolysis, the following experiment was conducted. Sonothrombolysis was performed on rabbit blood clots situated in a Mylar flow chamber (37.0° C.) infused with serum. In addition, tPA was introduced into the flow chamber at several initial concentrations ranging from 0.0 mg/mL to 0.2 mg/mL. At each tPA concentration, the ultrasound delivery parameters were adjusted to maximize the efficacy of sonothrombolysis of the clots. The efficacy of sonothrombolysis was assessed by determining the % clot mass loss per minute within the flow chamber. The ultrasound delivery parameters that were adjusted in this experiment included pulsed ultrasound intensity (0.1-2.0 W/cm2), ultrasound frequency (0.7-4 MHz), and duty factor (0.05-100%).
# Once the ultrasound delivery parameters were established for each tPA concentration, uniformly-sized MBs having diameters ranging from about […] were then added to the flow chamber; the concentration and elasticity of the MBs were adjusted while reducing tPA in order to maintain the initial % clot mass loss per minute. […]
smiles,measurement,value
"O=C1CCCCCCCCCCCCCCO1 [CPDL, cyclopentadecanolide]",increase of efficacy of sonothrombolysis (% clot mass loss per minute),six-fold

# Reference: US20130331738A1, “COMPOSITIONS AND METHODS FOR POTENTIATING SONOTHROMBOLYSIS” (Board of Trustees University of Arkansas, priority 2012, published 2013)
